Results taken from patent US10682371B2, “Small molecule conjugates specifically activated in tumor microenvironment for targeting and use thereof” (priority 2014, dated 2020).
*1 amine or outer side, *2 acyl side, *3 side chain or, on linkers, in order; H or OH if unused. Where a SMILES comes first, the peptide text is derived from it. [ ]: non-standard residue; d: D form. The star is where a group is joined. ξ: configuration not given here. Doxorubicin(3'-N) = COc1cccc2c1C(=O)c1c(O)c3c(c(O)c1C2=O)C[C@@](O)(C(=O)CO)C[C@@H]3O[C@H]1C[C@H](N*)[C@H](O)[C@H](C)O1; Dolaproine(all-ξ) = COC(C(C)C(=O)[*:2])C1CCCN1[*:1]; Dolaproine = CO[C@@H]([C@@H]1CCCN1)[C@@H](C)C(=O)O; Dil = CC[C@H](C)[C@H](NC)[C@@H](CC(=O)O)OC; X1 = CCC(C)C(C(CC(=O)[*:2])OC)N(C)[*:1]; PABC = O=C(OCc1ccc(N[*:1])cc1)[*:2]; X3 = C[C@@H](N*)[C@@H](O)c1ccccc1; MeOCH2CH2OCH2CO = COCCOCC(=O)*; NMeV = CN[CH](C(=O)O)C(C)C; X2 = CC(N*)C(O)c1ccccc1; Cbz = O=C(OCc1ccccc1)*

Columns and labels:
HEK293 cells = type: cell-based
Method: Toxicity detection method: a standard universal test program was used to perform the in vitro cytotoxicity test. 2500 HEK293 cells were cultured in a 96-well plate, and allowed to grow overnight. Cytotoxic compounds and their corresponding conjugated compounds were added into each well in different concentrations, cultivated with the cells at 37° C. for 72 hours, and then treated with MTT reagents. OD changes were read. The approximate multiples of the toxicity change were obtained by comparing the IC50 of the modified compounds to their corresponding cytotoxic compounds.

[1] = tested on: Human breast cancer MDA-MB231 cells; type: in vivo, nude mice; details: for tumor inhibition rate (%): mouse, in vivo
Method: 1) Human breast cancer MDA-MB231 cells were purchased from American type culture collection (ATCC) and identified according the specification provided by ATCC. Cells were cultivated in […] (DMEM culture medium) containing 10% fetal bovine serum at 37° C. and 5% CO2. The cells were passaged for every three days and cells within the 15th passage were used.
2) Production of tumor. 5×10^6 MDA-MB231 cells were subcutaneously injected to the back of the nude mice. Mice were randomly grouped after the tumor reached at least 100 mm^3. Then treatment began and the day on which the treatment began was day 1.
3) Course of treatment. […] The drugs were administered once weekly for four weeks.
When R1 is 2-(2-Methoxyethoxy)Acetyl, and R3 is Ala, activation study and efficacy study were carried out by using compounds having different cleavable linker. The study methods are identical to those in Examples 10, 11 and 12. The in vitro activation efficiency was tested by asparagine endopeptidase and the tumor inhibition rate was tested by using human breast cancer MDA-MB231 model. […]

asparagine endopeptidase = target: T1, asparagine endopeptidase (Homo sapiens, UniProt Q99538)
T1 sequence (Q99538 26-323 limits assumed): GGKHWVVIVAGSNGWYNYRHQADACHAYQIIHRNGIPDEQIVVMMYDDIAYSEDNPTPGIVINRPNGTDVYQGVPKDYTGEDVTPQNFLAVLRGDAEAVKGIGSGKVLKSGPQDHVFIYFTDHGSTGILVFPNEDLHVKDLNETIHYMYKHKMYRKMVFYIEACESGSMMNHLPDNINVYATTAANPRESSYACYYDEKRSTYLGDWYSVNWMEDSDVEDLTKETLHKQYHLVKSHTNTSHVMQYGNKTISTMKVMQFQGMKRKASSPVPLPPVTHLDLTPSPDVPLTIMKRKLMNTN
Method: Reduction of reactant and increase of product were detected by HPLC, thereby comparing the activation efficiency of these compounds.
When R1 is 2-(2-Methoxyethoxy)Acetyl, and R3 is Ala, activation study and efficacy study were carried out by using compounds having different cleavable linker. The study methods are identical to those in Examples 10, 11 and 12. The in vitro activation efficiency was tested by asparagine endopeptidase and the tumor inhibition rate was tested by using human breast cancer MDA-MB231 model.

[2] = tested on: Human breast cancer MDA-MB435 tumor tissue homogenate; type: biochemical; details: Human breast cancer MDA-MB435 tumor tissue homogenate (30 μg/ml); 1 mg/ml compound
Method: (§1) At 37 °C, sample compounds were added into 100 μg acidized tumor tissue homogenates (pH6.0) in a concentration of 1 mg/ml.
(§2) At 37 °C, sample compounds were added into 100 μg acidized human breast cancer (MDA-MB435) tumor tissue homogenates (pH6.0) in a concentration of 1 mg/ml.
(§3) […], sample compounds were added into 100 μg acidized tumor tissue homogenates (pH6.0) in a concentration of 1 mg/ml.
as §2
(§4) At 37 °C, sample compounds were added into 100 μg acidized tumor tissue homogenates in a concentration of 1 mg/ml.
(§5) In the experiments, at 37 °C, compounds were added into proteases in 100 μg acidized tumor tissue homogenates in a concentration of 1 mg/ml. […] Meanwhile certain compounds produced in the screening were compared and their activation efficiency in same tissue was analyzed.
(§6) At 37° C., compounds were added into proteases in 100 μg acidized tumor tissue homogenates in a concentration of 1 mg/ml.

D121 lung tumor cells = type: in vivo, C57 mice
Method: 1) D121 lung tumor cells were purchased from ATCC. Cells were cultivated in DMEM culture solution containing 10% fetal bovine serum at 37° C. and 5% CO2. The cells were passaged for every three days and cells within the 15th passage were used.
2) Tumor immunization. 5×10^5 D121 lung cancer cells (purchased from ATCC) which were killed by irradiation were intraperitoneally injected to mice. The mice were injected for 3 times, once every two weeks. After immunization, mice were injected with tumor cells and the drugs were administered weekly for 4 weeks.
3) Production of tumor. At day 32, 10^6 live lung tumor cells were subcutaneously injected to the back of the C57 mice immunized by tumor. Treatment began when the tumor grew to 0.3-0.4 cm.
2) Tumor immunization. 5×10^5 D121 lung cancer cells (purchased from ATCC) which were killed by irradiation were intraperitoneally injected to mice. The mice were injected for 3 times, once every two weeks. After immunization, mice were injected with tumor cells and the drugs were administered weekly for 4 weeks. In table 16 below the immune group was immuned with D121 lung tumor cells and the group without dead D121 lung tumor cells was injected with physiological saline as controls.
3) Production of tumor. After immunization (4 weeks later), 10^6 live lung tumor cells were subcutaneously injected to the back of the C57 mice immunized by tumor. Treatment began when the tumor grew to 0.3-0.4 cm. Tumor size (mm^3) were noted and tumor inhibition rates were calculated.
2) Tumor immunization. 5×10^5 D121 lung cancer cells (purchased from ATCC) which were killed by irradiation were intraperitoneally injected to mice. The mice were injected for 3 times, once every two weeks. After immunization, mice were injected with tumor cells and the drugs were administered weekly for 4 weeks. In the table below the immune group was immuned with D121 lung tumor cells and the group without dead D121 lung tumor cells was injected with physiological saline as controls.
3) Production of tumor. At day 32, 10^6 live D121 lung tumor cells were subcutaneously injected to the back of the C57 mice immunized by tumor. Treatment began when the tumor grew to 0.3-0.4 cm.
1) D121 lung tumor cells were purposed from ATCC. Cells were cultivated in DMEM culture solution containing 10% fetal bovine serum at 37° C. and 5% CO2. The cells were passaged for every three days and cells within the 15th passage were used.

tumor CD8+ T cells = type: in vivo, C57 mice; details: D121 immunized C57 mice, 13.2 μmol/kg; ratio of CD8 positive cells in CD45 positive cells of tumor
Method: (§7) 4) Analysis on tumor CD8+ T cells. The tumor tissue was homogenated and individual cells in the tumor were filtered, separated and washed by buffer twice, then cultivated with the leucocyte common antigen CD45-PE and CD8-FITC marked antibodies for 1 hour at ambient temperature. The cells were washed by phosphate buffer containing 1% fetal bovine serum twice and then analyzed for the ratio of the T lymphocyte antigen (CD8) positive cells in the leucocyte common antigen (CD45) positive cells by flow cytometry.
as §7, with “CD45-PE and T-lymphocyte antigen CD8-FITC marked” for “CD45-PE and CD8-FITC marked”, “flow cytometry. Increasement of the ratio indicates increased T lymphocyte cells and thus the animal immunity against the tumor was improved.” for “flow cytometry.”
as §7, with “cytometry. Increasement of the ratio indicates increased T lymphocyte cells and thus the animal immunity against the tumor was improved.” for “cytometry.”

[3] = tested on: Human non-small cell lung cancer A549 tumor tissue homogenate; type: biochemical; details: Human non-small cell lung cancer A549 tumor tissue homogenate (30 μg/ml); 1 mg/ml compound
Method: as §1, §3, §4, §5, §6

[4] = tested on: Human renal cancer OS-RC-2 tumor tissue homogenate; type: biochemical; details: Human renal cancer OS-RC-2 tumor tissue homogenate (30 μg/ml); 1 mg/ml compound
Method: as §1, §3, §4, §5, §6

[5] = tested on: Human colon cancer HT-29 tumor tissue homogenate; type: biochemical; details: Human colon cancer HT-29 tumor tissue homogenate (30 μg/ml); 1 mg/ml compound
Method: as §1, §3, §4, §5, §6

[6] = tested on: Human pancreatic cancer Panc-1 tumor tissue homogenate; type: biochemical; details: Human pancreatic cancer Panc-1 tumor tissue homogenate (30 μg/ml); 1 mg/ml compound
Method: as §1, §3, §4, §5, §6

[7] = tested on: Human chronic leukemia K562 tumor tissue homogenate; type: biochemical; details: Human chronic leukemia K562 tumor tissue homogenate (30 μg/ml); 1 mg/ml compound
Method: as §1, §3, §4, §5, §6

[8] = tested on: Human liver cancer Hepg2 tumor tissue homogenate; type: biochemical; details: Human liver cancer Hepg2 tumor tissue homogenate (30 μg/ml); 1 mg/ml compound
Method: as §1, §3, §4, §5, §6

Human heart = type: biochemical; details: Human heart homogenate; 1 mg/ml compound

CC[C@H](C)[C@@H]([C@@H](CC(=O)N1CCC[C@H]1[C@H](OC)[C@@H](C)C(=O)N[C@H](C)[C@@H](O)c1ccccc1)OC)N(C)C(=O)[C@@H](NC(=O)[C@H](C(C)C)N(C)C(=O)OCc1ccc(NC(=O)[C@H](CC(N)=O)NC(=O)[C@H](C)NC(=O)[C@H](C)NC(=O)OCc2ccccc2)cc1)C(C)C [CBZ-AAN-PABC-MMAE] (Cbz-AAN[PABC][NMeV]V[Dil][Dolaproine]-X3)
Cytoxicity reduced (Multiples) (HEK293 cells): 8.3 Multiples
tumor inhibition rate (%) [1]: 9.7%
Cleaving efficiency (asparagine endopeptidase): 2.6%

COCCOCC(=O)N[C@@H](C)C(=O)N[C@@H](C)C(=O)N[C@@H](CC(N)=O)C(=O)N[C@@H](CC(C)C)C(=O)N[C@H]1C[C@H](O[C@H]2C[C@](O)(C(=O)CO)Cc3c(O)c4c(c(O)c32)C(=O)c2c(OC)cccc2C4=O)O[C@@H](C)[C@H]1O [PEG-AANL-DOX] (MeOCH2CH2OCH2CO-AANL-{Doxorubicin(3'-N)})
Cytoxicity reduced (Multiples) (HEK293 cells): 110.2 Multiples
tumor inhibition rate (%) [1]: 60.3%
Cleaving efficiency (asparagine endopeptidase): 66.5%

COCCOCC(=O)N[C@H](C(=O)N[C@@H](C)C(=O)N[C@@H](CC(N)=O)C(=O)Nc1ccc(COC(=O)N[C@H]2C[C@H](O[C@H]3C[C@](O)(C(C)=O)Cc4c(O)c5c(c(O)c43)C(=O)c3c(OC)cccc3C5=O)O[C@@H](C)[C@H]2O)cc1)C(C)O (stereo partly drawn) [Compound S4, 4-N—(N—(N—(N-2-(2-methoxyethoxy)acetyl-L-threonyl)-L-alanyl)-L-asparaginyl)-amino benzyl alcohol-daunorubicin-carbamate]
Cytoxicity reduced (Multiple) (HEK293 cells; HEK293, 72 hours, MTT, IC50 of modified compound compared to its corresponding cytotoxic compound, approximate multiples): 345 Multiple
Size of tumor (mm^3) Day 10 ([1]; MDA-MB231, nude mice, IV 13.2 μmol/kg once weekly for four weeks, Day 10): 95.56 ± 57.54 mm^3
Size of tumor (mm^3) Day 24 ([1]; MDA-MB231, nude mice, IV 13.2 μmol/kg once weekly for four weeks, Day 24): 64.68 ± 43.56 mm^3
Effect on tumor growth, in words ([1]; compared to control, camptothecin, capecitabine and daunorubicin groups): strong inhibitory effect on tumor growth
Activation Efficiencies (%) [2]: 83.5%
Size of tumor (mm^3) Day 18 (D121 lung tumor cells; D121 immunized C57 mice, 13.2 μmol/kg weekly, PDL1 antibody 5 μg/kg where combined, Day 18): 316.78 ± 109.98 mm^3
Treatment effects on C57 mice, in words (D121 lung tumor cells; compared to the control group and the other treatment groups): greatly improved
CD8: CD45 (%) (tumor CD8+ T cells): 16.8%
Activation Efficiencies (%) [3]: 64.5%
Activation Efficiencies (%) [4]: 78.5%
Activation Efficiencies (%) [5]: 83.5%
Activation Efficiencies (%) [6]: 67.3%
Activation Efficiencies (%) [7]: 64.5%
Activation Efficiencies (%) [8]: 67.3%
Activation Efficiencies (%) (Human heart): 2.8%

CCC(C)C(C(CC(=O)N1CCCC1C(OC)C(C)C(=O)NC(C)C(O)c1ccccc1)OC)N(C)C(=O)C(NC(=O)C(C(C)C)N(C)C(=O)OCc1ccc(NC(=O)C(CC(N)=O)NC(=O)C(C)NC(=O)C(C)NC(=O)COCCOC)cc1)C(C)C (stereo not drawn) [PEG-AAN-PABC-MMAE] (MeOCH2CH2OCH2CO-AAN[PABC][NMeV]V[X1][Dolaproine(all-ξ)]-X2; configuration not given here)
Cytoxicity reduced (Multiples) (HEK293 cells): 22 Multiples
tumor inhibition rate (%) [1]: 34.4%
Cleaving efficiency (asparagine endopeptidase): 14.4%

CC[C@H](C)[C@@H]([C@@H](CC(=O)N1CCC[C@H]1[C@H](OC)[C@@H](C)C(=O)N[C@H](C)[C@@H](O)c1ccccc1)OC)N(C)C(=O)[C@@H](NC(=O)[C@H](C(C)C)N(C)C(=O)OCc1ccc(NC(=O)[C@H](CC(N)=O)NC(=O)[C@H](C)NC(=O)[C@H](C)NC(C)=O)cc1)C(C)C [AC-AAN-PABC-MMAE] (Ac-AAN[PABC][NMeV]V[Dil][Dolaproine]-X3)
Cytoxicity reduced (Multiples) (HEK293 cells): 15.5 Multiples
tumor inhibition rate (%) [1]: 16.7%
Cleaving efficiency (asparagine endopeptidase): 3.4%
